Source: patent publication US20190307843A1, “SINGLE DOSE METHODS FOR PREVENTING AND TREATING FUNGAL INFECTIONS” (Cidara Therapeutics, Inc., priority 2016, published 2019)
In brackets after ≈: the same amount, converted by molar mass. Read-outs that look alike come from different tables or passages of the source.

Tested on: Candida auris strains
Test: Candida auris antifungal susceptibility testing (CLSI M27-A3), 38 strains
Type: cell-based
Conditions: for MIC: Candidozyma auris, read-out: MIC

CC[C@H](C)C[C@H](C)CCCCCCCCC(=O)N[C@H]1C[C@@H](O)[C@@H](NCCN)NC(=O)[C@@H]2[C@@H](O)CCN2C(=O)[C@H]([C@H](O)CCN)NC(=O)[C@H]([C@H](O)[C@@H](O)c2ccc(O)cc2)NC(=O)[C@@H]2C[C@@H](O)CN2C(=O)[C@H]([C@@H](C)O)NC1=O [CAS, caspofungin]
MIC (24 h, strain 1 VPCI 669/P/12, 24 h): 0.25 µg/mL (≈ 0.229 µM) | MIC (24 h, strain 2 VCPI 671/P/12, 24 h): 0.25 µg/mL (≈ 0.229 µM) | MIC (24 h, strain 3 VCPI 674/P/12, 24 h): 0.25 µg/mL (≈ 0.229 µM) | MIC (24 h, strain 4 VCPI 683/P/12, 24 h): 0.25 µg/mL (≈ 0.229 µM) | MIC (24 h, strain 5 VCPI 692/P/12, 24 h): 0.25 µg/mL (≈ 0.229 µM) | MIC (24 h, strain 6 VCPI 712/P/12, 24 h): 0.25 µg/mL (≈ 0.229 µM) | MIC (24 h, strain 7 VCPI 471/P/13, 24 h): 1 µg/mL (≈ 0.915 µM) | MIC (24 h, strain 8 VCPI 475/P/13, 24 h): 0.25 µg/mL (≈ 0.229 µM) | MIC (24 h, strain 9 VCPI 478/P/13, 24 h): 0.25 µg/mL (≈ 0.229 µM) | MIC (24 h, strain 10 VCPI 479/P/13, 24 h): 0.5 µg/mL (≈ 0.457 µM) | MIC (24 h, strain 11 VCPI 480/P/13, 24 h): 0.5 µg/mL (≈ 0.457 µM) | MIC (24 h, strain 12 VCPI 482/P/13, 24 h): 0.5 µg/mL (≈ 0.457 µM) | MIC (24 h, strain 13 VCPI 483/P/13, 24 h): 0.25 µg/mL (≈ 0.229 µM) | MIC (24 h, strain 14 VCPI 1130/P/13, 24 h): 0.5 µg/mL (≈ 0.457 µM) | MIC (24 h, strain 15 VCPI 1132/P/13, 24 h): 0.5 µg/mL (≈ 0.457 µM) | MIC (24 h, strain 16 VCPI 1133/P/13, 24 h): 16 µg/mL (≈ 14.6 µM) | MIC (24 h, strain 17 VCPI 105/P/14, 24 h): 0.5 µg/mL (≈ 0.457 µM) | MIC (24 h, strain 18 VCPI 107/P/14, 24 h): 0.25 µg/mL (≈ 0.229 µM) | MIC (24 h, strain 19 VCPI 510/P/14, 24 h): 0.5 µg/mL (≈ 0.457 µM) | MIC (24 h, strain 20 VCPI 511/P/14, 24 h): 0.5 µg/mL (≈ 0.457 µM) | MIC (24 h, strain 21 VCPI 512/P/14, 24 h): 0.5 µg/mL (≈ 0.457 µM) | MIC (24 h, strain 22 VCPI 513/P/14, 24 h): 1 µg/mL (≈ 0.915 µM) | MIC (24 h, strain 23 VCPI 514/P/14, 24 h): 0.5 µg/mL (≈ 0.457 µM) | MIC (24 h, strain 24 VCPI 250/P/14, 24 h): 0.5 µg/mL (≈ 0.457 µM) | MIC (24 h, strain 25 VCPI 265/P/14, 24 h): 8 µg/mL (≈ 7.32 µM) | MIC (24 h, strain 26 VCPI 266/P/14, 24 h): 0.125 µg/mL (≈ 0.114 µM) | MIC (24 h, strain 27 VCPI 462/P/14, 24 h): 8 µg/mL (≈ 7.32 µM) | MIC (24 h, strain 28 VCPI 463/P/14, 24 h): 0.5 µg/mL (≈ 0.457 µM) | MIC (24 h, strain 29 VCPI 467/P/14, 24 h): 0.125 µg/mL (≈ 0.114 µM) | MIC (24 h, strain 30 VCPI 471a/P/14, 24 h): 4 µg/mL (≈ 3.66 µM) | MIC (24 h, strain 31 VCPI 478/P/14, 24 h): 1 µg/mL (≈ 0.915 µM) | MIC (24 h, strain 32 VCPI 518/P/14, 24 h): 0.5 µg/mL (≈ 0.457 µM) | MIC (24 h, strain 33 VCPI 550/P/14, 24 h): 0.125 µg/mL (≈ 0.114 µM) | MIC (24 h, strain 34 VCPI 714/P/14, 24 h): 0.5 µg/mL (≈ 0.457 µM) | MIC (24 h, strain 35 VCPI 717/P/14, 24 h): 0.5 µg/mL (≈ 0.457 µM) | MIC (24 h, strain 36 VCPI 1060/P/14, 24 h): 0.5 µg/mL (≈ 0.457 µM) | MIC (24 h, strain 37 VCPI 74/P/15, 24 h): 0.5 µg/mL (≈ 0.457 µM) | MIC (24 h, strain 38 VCPI 213/P/15, 24 h): 0.5 µg/mL (≈ 0.457 µM) | MIC (48 h, strain 1 VPCI 669/P/12, 48 h): > 16 µg/mL | MIC (48 h, strain 2 VCPI 671/P/12, 48 h): > 16 µg/mL | MIC (48 h, strain 3 VCPI 674/P/12, 48 h): 0.25 µg/mL (≈ 0.229 µM) | MIC (48 h, strain 4 VCPI 683/P/12, 48 h): > 16 µg/mL | MIC (48 h, strain 5 VCPI 692/P/12, 48 h): > 16 µg/mL | MIC (48 h, strain 6 VCPI 712/P/12, 48 h): 0.25 µg/mL (≈ 0.229 µM) | MIC (48 h, strain 7 VCPI 471/P/13, 48 h): > 16 µg/mL | MIC (48 h, strain 8 VCPI 475/P/13, 48 h): 0.25 µg/mL (≈ 0.229 µM) | MIC (48 h, strain 9 VCPI 478/P/13, 48 h): > 16 µg/mL | MIC (48 h, strain 10 VCPI 479/P/13, 48 h): > 16 µg/mL | MIC (48 h, strain 11 VCPI 480/P/13, 48 h): > 16 µg/mL | MIC (48 h, strain 12 VCPI 482/P/13, 48 h): > 16 µg/mL | MIC (48 h, strain 13 VCPI 483/P/13, 48 h): 0.25 µg/mL (≈ 0.229 µM) | MIC (48 h, strain 14 VCPI 1130/P/13, 48 h): 0.5 µg/mL (≈ 0.457 µM) | MIC (48 h, strain 15 VCPI 1132/P/13, 48 h): 0.5 µg/mL (≈ 0.457 µM) | MIC (48 h, strain 16 VCPI 1133/P/13, 48 h): > 16 µg/mL | MIC (48 h, strain 17 VCPI 105/P/14, 48 h): 1 µg/mL (≈ 0.915 µM) | MIC (48 h, strain 18 VCPI 107/P/14, 48 h): 0.5 µg/mL (≈ 0.457 µM) | MIC (48 h, strain 19 VCPI 510/P/14, 48 h): > 16 µg/mL | MIC (48 h, strain 20 VCPI 511/P/14, 48 h): > 16 µg/mL | MIC (48 h, strain 21 VCPI 512/P/14, 48 h): 1 µg/mL (≈ 0.915 µM) | MIC (48 h, strain 22 VCPI 513/P/14, 48 h): > 16 µg/mL | MIC (48 h, strain 23 VCPI 514/P/14, 48 h): 1 µg/mL (≈ 0.915 µM) | MIC (48 h, strain 24 VCPI 250/P/14, 48 h): 0.5 µg/mL (≈ 0.457 µM) | MIC (48 h, strain 25 VCPI 265/P/14, 48 h): > 16 µg/mL | MIC (48 h, strain 26 VCPI 266/P/14, 48 h): 0.125 µg/mL (≈ 0.114 µM) | MIC (48 h, strain 27 VCPI 462/P/14, 48 h): > 16 µg/mL | MIC (48 h, strain 28 VCPI 463/P/14, 48 h): 0.5 µg/mL (≈ 0.457 µM) | MIC (48 h, strain 29 VCPI 467/P/14, 48 h): 0.5 µg/mL (≈ 0.457 µM) | MIC (48 h, strain 30 VCPI 471a/P/14, 48 h): > 16 µg/mL | MIC (48 h, strain 31 VCPI 478/P/14, 48 h): 2 µg/mL (≈ 1.83 µM) | MIC (48 h, strain 32 VCPI 518/P/14, 48 h): 16 µg/mL (≈ 14.6 µM) | MIC (48 h, strain 33 VCPI 550/P/14, 48 h): 0.25 µg/mL (≈ 0.229 µM) | MIC (48 h, strain 34 VCPI 714/P/14, 48 h): > 16 µg/mL | MIC (48 h, strain 35 VCPI 717/P/14, 48 h): > 16 µg/mL | MIC (48 h, strain 36 VCPI 1060/P/14, 48 h): > 16 µg/mL | MIC (48 h, strain 37 VCPI 74/P/15, 48 h): > 16 µg/mL | MIC (48 h, strain 38 VCPI 213/P/15, 48 h): > 16 µg/mL | number of resistant isolates (of 38 C. auris isolates): 4
